From US10350210B2, “EGFR and ALK dual inhibitor” (PRECEDO PHARMACEUTICALS CO., LTD, priority 2015, dated 2019)

Experiments:
BaF3-ALK-F1174L = test: Cell growth (Cell Titer-Glo viability), BaF3-ALK-F1174L; assay type: cell-based; conditions: Mus musculus; BaF3-ALK-F1174L (mutant ALK F1174L kinase), 72 hrs
Source text: (§1) By testing the effect of the novel kinase inhibitors on the proliferation of cancer cells, the selectivity of the compounds of the present disclosure in inhibiting the proliferation of cancer cells was further assessed. In this example, human non-small cell lung cancer cell NCI-H1975 (expressing EGFR L858R/T790M double mutant gene), human skin squamous carcinoma cell A431 (expressing wild-type EGFR gene), non-small cell lung cancer NCI-H3255 (expressing EGFR L858R mutant gene), non-small cell lung cancer cell NCI-H3122 (expressing ALK gene), human non-small cell lung cancer cell A549 (expressing wild-type EGFR gene), human non-small cell lung cancer cell NCI-H2122 (expressing wild-type EGFR gene), human non-small cell lung cancer cell NCI-H460 (expressing wild-type EGFR gene), human non-small cell lung cancer cell PC-9 (expressing EGFR delE746_A750 mutant gene), Chinese hamster ovary cell CHO (Cricetulus griseus, hamster, Chinese, ovary), Chinese hamster lung cell CHL, human non-small cell lung cancer cell HCC827 (expressing mutant EGFR del19 gene), human lung adenocarcinoma cell HCC4006 (expressing mutant EGFR del19 gene), human non-small cell lung cancer cell NCI-H2228 (expressing wild-type ALK gene), and mouse primary B cell BaF3 were used, and the above cells were all purchased from ATCC (US). In addition, mouse BaF3-TEL-ALK (stably expressing ALK kinase), mouse BaF3-ALK-F1174L (stably expressing mutant ALK F1174L kinase), mouse BaF3-NPM-ALK (stably expressing ALK kinase), mouse BaF3-TEL-EGFR (stably expressing EGFR kinase), mouse BaF3-TEL-EGFR-T790M (stably expressing EGFR T790M mutant kinase), mouse BaF3-FL-EGFR-Del19 (stably expressing EGFR delE746_A750 mutant kinase), mouse BaF3-TEL-EGFR-L858R (stably expressing EGFR L858R mutant kinase), mouse BaF3-FL-EGFR-T790M-L858R (stably expressing EGFR T790M/L858R mutant kinase), mouse BaF3-TEL-INSR (stably expressing INSR protein), mouse BaF3-TEL-IGF1R (stably expressing IGF1R Protein), mouse BaF3-EML4-ALK (stably expressing EML4-ALK Protein), mouse BaF3-TEL-JAK3 (stably expressing JAK3 kinase protein), mouse BaF3-TEL-CSF1R (stably expressing CSF1R protein), and mouse BaF3-TEL-ALK-F1196M (stably expressing ALK F1196M mutant kinase) were also used in this example. The above cell lines were all established by our laboratory via the following process: kinase proteins or protein domain sequences of human ALK, ALK F1174L, EGFR, EGFR T790M, EGFR delE746_A750, EGFR L858, EGFR T790M/L858R, INSR, IGF1R, EML4-ALK, JAK3, CSF1R, ALK F1196M were amplified respectively by PCR, and were respectively inserted into MSCV-Puro vector (Clontech) with N-terminal TEL fragments and/or NPM fragments and/or TPR fragments; the resultants were stably transfected into mouse BaF3 cells by the means of retrovirus, and the IL-3 growth factors were removed, and eventually the ALK, ALK F1174L, EGFR, EGFR T790M, EGFR delE746_A750, EGFR L858, EGFR T790M/L858R, INSR, IGF1R, EML4-ALK, JAK3, CSF1R, ALK F1196M-transferred protein dependent cell lines were obtained.
(§2) The number of viable cells was determined quantitatively by a microplate reader using Cell Titer-Glo® (Promega, US) chemiluminescence cell viability assay kit.

NCI-H2122 = test: Growth of cancer cells (Cell Titer-Glo viability), NCI-H2122; assay type: cell-based; conditions: Homo sapiens; NCI-H2122 (wild-type EGFR), 72 hrs
Source text: as §1, §2

A549 = test: Growth of cancer cells (Cell Titer-Glo viability), A549; assay type: cell-based; conditions: Homo sapiens; A549 (wild-type EGFR), 72 hrs
Source text: as §1, §2

CHO = test: Cell growth (Cell Titer-Glo viability), CHO; assay type: cell-based, Chinese hamster; conditions: Cricetulus griseus; CHO Chinese hamster ovary cell, 72 hrs; read-out: GI50
Source text: as §1, §2

BaF3-TEL-EGFR = test: Cell growth (Cell Titer-Glo viability), BaF3-TEL-EGFR; assay type: cell-based; conditions: Mus musculus; BaF3-TEL-EGFR (stably expressing EGFR kinase), 72 hrs
Source text: as §1, §2

PC-9 = test: Growth of cancer cells (Cell Titer-Glo viability), PC-9; assay type: cell-based; conditions: Homo sapiens; PC-9 (EGFR delE746_A750 mutant), 72 hrs
Source text: as §1, §2

CHL = test: Cell growth (Cell Titer-Glo viability), CHL; assay type: cell-based, Chinese hamster; conditions: Cricetulus griseus; CHL Chinese hamster lung cell, 72 hrs; read-out: GI50
Source text: as §1, §2

HCC827 = test: Growth of cancer cells (Cell Titer-Glo viability), HCC827; assay type: cell-based; conditions: Homo sapiens; HCC827 (mutant EGFR del19), 72 hrs
Source text: as §1, §2

NCI-H2228 = test: Growth of cancer cells (Cell Titer-Glo viability), NCI-H2228; assay type: cell-based; conditions: Homo sapiens; NCI-H2228 (wild-type ALK), 72 hrs
Source text: as §1, §2

BaF3-FL-EGFR-Del19 = test: Cell growth (Cell Titer-Glo viability), BaF3-FL-EGFR-Del19; assay type: cell-based; conditions: Mus musculus; BaF3-FL-EGFR-Del19 (EGFR delE746_A750 mutant kinase), 72 hrs
Source text: as §1, §2

NCI-H1975 = test: Growth of cancer cells (Cell Titer-Glo viability), NCI-H1975; assay type: cell-based; conditions: Homo sapiens; NCI-H1975 (EGFR L858R/T790M double mutant), 72 hrs
Source text: as §1, §2

A431 = test: Growth of cancer cells (Cell Titer-Glo viability), A431; assay type: cell-based; conditions: Homo sapiens, A-431; A431 (wild-type EGFR), 72 hrs; read-out: GI50
Source text: as §1, §2

BaF3 = test: Cell growth (Cell Titer-Glo viability), BaF3; assay type: cell-based; conditions: BaF3 mouse primary B cell, 72 hrs
Source text: as §1, §2

NCI-H3122 = test: Growth of cancer cells (Cell Titer-Glo viability), NCI-H3122; assay type: cell-based; conditions: Homo sapiens; NCI-H3122 (expressing ALK gene), 72 hrs; read-out: GI50
Source text: as §1, §2

BaF3-TEL-EGFR-T790M = test: Cell growth (Cell Titer-Glo viability), BaF3-TEL-EGFR-T790M; assay type: cell-based; conditions: Mus musculus; BaF3-TEL-EGFR-T790M (EGFR T790M mutant kinase), 72 hrs
Source text: as §1, §2

BaF3-TEL-ALK = test: Cell growth (Cell Titer-Glo viability), BaF3-TEL-ALK; assay type: cell-based; conditions: Mus musculus; BaF3-TEL-ALK (stably expressing ALK kinase), 72 hrs
Source text: as §1, §2

SMILES	GI50 (BaF3-ALK-F1174L) [nM]	GI50 (NCI-H2122) [nM]	GI50 (A549) [nM]	GI50 (CHO) [nM]	GI50 (BaF3-TEL-EGFR) [nM]	GI50 (PC-9) [nM]	GI50 (CHL) [nM]	GI50 (HCC827) [nM]	GI50 (NCI-H2228) [nM]	GI50 (BaF3-FL-EGFR-Del19) [nM]	GI50 (NCI-H1975) [nM]	GI50 (A431) [nM]	GI50 (BaF3) [nM]	GI50 (NCI-H3122) [nM]	GI50 (BaF3-TEL-EGFR-T790M) [nM]	GI50 (BaF3-TEL-ALK) [nM]
C=CC(=O)Nc1cc(Nc2ncc(Cl)c(Nc3ccccc3S(=O)(=O)N(C)C)n2)c(OC)cc1N1CCN(C)CC1 [Compound 32, N-(5-(5-chloro-4-(2-(N,N-dimethylsulfamido)phenylamino)pyrimidin-2-ylamino)-4-methoxy-2-(4-methylpiperazin-1-yl)phenyl)acrylamide]	530	370	600	340	500	< 3	1600	< 3	490	< 0.3	31	220	1100	11	10	> 10000
C=CC(=O)Nc1cc(Nc2ncc(Cl)c(Nc3cccc(C(F)(F)F)c3)n2)c(OC)cc1N1CCN(C)CC1 [Compound 18, N-(5-(5-chloro-4-(3-(trifluoromethyl)phenylamino)pyrimidin-2-ylamino)-4-methoxy-2-(4-methylpiperazin-1-yl)phenyl)acrylamide]	1700	3400	> 10000	5400	–	160	4200	46	170	< 0.3	260	4600	4300	770	80	180
C=CC(=O)Nc1cc(Nc2ncc(Cl)c(Nc3ccccc3S(=O)(=O)C(C)C)n2)c(OC)cc1N1CCN(CCF)CC1 [Compound 9, N-(5-(5-chloro-4-(2-(isopropylsulfonyl)phenylamino)pyrimidin-2-ylamino)-2-(4-(2-fluoroethyl)piperazin-1-yl)-4-methoxyphenyl)acrylamide]	540	680	1300	1000	650	43	4300	35	260	< 0.3	59	320	2900	42	47	> 10000
C=CC(=O)Nc1cc(Nc2ncc(Cl)c(Nc3ccccc3S(=O)(=O)C(C)C)n2)c(OC)cc1N1CCN(C)CC1 [Compound 2, N-(5-(5-chloro-4-(2-(isopropylsulfonyl)phenylamino)pyrimidin-2-ylamino)-4-methoxy-2-(4-methylpiperazin-1-yl)phenyl)acrylamide]	670	3600	870	500	450	5	2000	10	250	< 0.3	43	250	1600	33	12	> 10000
C=CC(=O)Nc1cc(Nc2ncc(Cl)c(Nc3ccc(F)c(Cl)c3)n2)c(OC)cc1N1CCN(C)CC1 [Compound 21, N-(5-(5-chloro-4-(3-chloro-4-fluorophenylamino)pyrimidin-2-ylamino)-4-methoxy-2-(4-methylpiperazin-1-yl)phenyl)acrylamide]	740	1400	> 10000	6200	–	31	> 10000	28	78	< 0.3	100	1100	6800	300	35	43
C=CC(=O)Nc1cc(Nc2ncc(Cl)c(Nc3ccccc3S(=O)(=O)C(C)C)n2)c(OC)cc1N1CCNCC1 [Compound 4, N-(5-(5-chloro-4-(2-(isopropylsulfonyl)phenylamino)pyrimidin-2-ylamino)-4-methoxy-2-(piperazin-1-yl)phenyl) acrylamide]	1500	1300	2200	> 10000	–	45	4900	16	7.4	15	24	430	2000	7	62	8
